Measured values: US20230104936A1, “TRPML MODULATORS” (Casma Therapeutics, Inc., priority 2019, published 2023)

Test system: TFEB
Assay: TFEB nuclear translocation assay, HeLa wt cells
Assay type: cell-based
Settings: 2 hrs compound treatment, Table 1 does not say HeLa wt or TRPML1 KO
Procedure: For the TFEB nuclear translocation assay, HeLa wt or HeLa TRPML1 KO cells were plated at 2700 cells/well into black-walled, 384-well Cell carrier Ultra tissue culture treated plates in complete media and incubated overnight. The next day, cells are treated for 2 hrs with compounds and incubated at 37° C. Cells were then fixed for 30 minutes at room temperature in 4% final PFA and washed five times with 90 μL PBS. PBS is aspirated from the wells and the cells are blocked with 7.5 μL blocking buffer (1:1 PBS/Odyssey block buffer containing 0.1% triton x-100 and 1% goat serum). After 30-60 minutes of block, 7.5 μL of primary anti-TFEB (rabbit) antibody is added for a final dilution of 1:200 antibody in 15 μL blocking buffer. Plates are incubated overnight at 4° C. The following day, plates are washed again into PBS, 90 μL with 5 washes, all PBS is aspirated from the wells and the cells are incubated for 1 hr in 1:1000 goat-anti rabbit Alexa 488 secondary antibody, also containing 10 μg/mL Hoechst 33342. After the 1 hr room temperature incubation, plates are washed a final time into PBS, sealed with foil and imaged with an automated epifluorescence microscopy (PerkinElmer Operetta CLS). Four different fields were imaged per well using ×20 magnification for DAPI and FITC filter sets. Images were quantified using PerkinElmer Harmony software, briefly: apply flatfield correction (basic/advanced) for input images. Use the Find Nuclei building block with channel set at Hoechst to find the nuclei. Use the Find cytoplasm building block with channel set to Alexa 488 to find the cytoplasm. Use select cell region with Channel set at Alexa 488 and region of interest as Nuclei and define outer border at 0 μm and inner at 45 μm to cover complete nuclei. Use select cell region with Channel set at Alexa 488 and region of interest as ring region and define outer border at −5 μm and inner at 0 μm to define a ring around the nucleus. Use the find calculate intensity parameter to calculate intensity of the nuclear region and the ring region. Define results as Number of nuclei and ratio of A/B where A is Intensity of Nuclei and B is intensity of the ring region.
The compound numbers correspond to the compound numbers above in Tables A or B. Compounds having an activity designated as “++++” provided an AC50 of ≤2.00 μM; compounds having an activity designated as “+++” provided an AC50 of 2.01-8.00 μM; compounds having an activity designated as “++” provided an AC50 of 8.01-9.99 μM; and compounds having an activity designated as “+” provided an AC50 of ≥10.00 μM.

CCOC(=O)CC1(F)CCN(c2ccccc2NS(=O)(=O)c2ccc(S(=O)(=O)N(C)C)cc2)CC1 [Compound A-703, ethyl 2-(1-{2-[4-(dimethylsulfamoyl)benzenesulfonamido]phenyl}-4-fluoropiperidin-4-yl)acetate]
AC50 (Homo sapiens, HeLa, 2 h): ≤ 2 µM

CS(=O)(=O)c1ccc(S(=O)(=O)Nc2ccccc2N2CCC3(CC2)CN(CC2CCOC2)c2cc(F)ccc23)cc1 (centres unmarked) [Compound A-423, N-(2-{6-fluoro-1-[(oxolan-3-yl)methyl]-1,2-dihydrospiro[indole-3,4′-piperidin]-1′-yl}phenyl)-4-methanesulfonylbenzene-1-sulfonamide]
AC50 (Homo sapiens, HeLa, 2 h): ≤ 2 µM

CN(C)S(=O)(=O)c1ccc(S(=O)(=O)Cc2ccccc2N2CCC(c3c(F)cccc3F)CC2)cc1 [Compound A-229, 4-((2-(4-(2,6-difluorophenyl)piperidin-1-yl)benzyl)sulfonyl)-N,N-dimethylbenzenesulfonamide]
AC50 (Homo sapiens, HeLa, 2 h): ≤ 2 µM

Cc1cnc(N2CCC(CN3CCC(F)(F)CC3)CC2)c(NS(=O)(=O)c2ccc(S(=O)(=O)N(C)C)cc2)c1 [Compound A-952, N4-(2-{4-[(4,4-difluoropiperidin-1-yl)methyl]piperidin-1-yl}-5-methylpyridin-3-yl)-N1,N1-dimethylbenzene-1,4-disulfonamide]
AC50 (Homo sapiens, HeLa, 2 h): ≤ 2 µM

COCC1(C)CCN(c2ccccc2NS(=O)(=O)C2(c3ccccc3)CC2)CC1 [Compound A-649, N-{2-[4-(methoxymethyl)-4-methylpiperidin-1-yl]phenyl}-1-phenylcyclopropane-1-sulfonamide]
AC50 (Homo sapiens, HeLa, 2 h): 2.01 to 8 µM

Cc1ccc(N2CCOCC2)c(NS(=O)(=O)c2ccc3c(c2)CCC3)c1 [Compound A-520, N-[5-methyl-2-(morpholin-4-yl)phenyl]-2,3-dihydro-1H-indene-5-sulfonamide]
AC50 (Homo sapiens, HeLa, 2 h): ≤ 2 µM

CC1(C)CC2(CCN(c3ccccc3NS(=O)(=O)c3ccc4c(c3)OC(C)(C)C4)CC2)CO1 [Compound A-720, N-(2-{3,3-dimethyl-2-oxa-8-azaspiro[4.5]decan-8-yl}phenyl)-2,2-dimethyl-2,3-dihydro-1-benzofuran-6-sulfonamide]
AC50 (Homo sapiens, HeLa, 2 h): 2.01 to 8 µM

COCC1(C)CCN(c2ccccc2NS(=O)(=O)c2ccc(Br)cc2)CC1 [Compound A-623, 4-bromo-N-{2-[4-(methoxymethyl)-4-methylpiperidin-1-yl]phenyl}benzene-1-sulfonamide]
AC50 (Homo sapiens, HeLa, 2 h): 2.01 to 8 µM

CC(c1cccc(F)c1N1CCC(CN2CCC(F)(F)C2)CC1)S(=O)(=O)c1ccc(S(=O)(=O)N(C)C)cc1 (centres unmarked) [Compound A-802, 4-[1-(2-{4-[(3,3-difluoropyrrolidin-1-yl)methyl]piperidin-1-yl}-3-fluorophenyl)ethanesulfonyl]-N,N-dimethylbenzene-1-sulfonamide]
AC50 (Homo sapiens, HeLa, 2 h): ≤ 2 µM

COc1cc(S(=O)(=O)Nc2ccccc2N2CCN(c3ccc(Cl)cc3F)CC2)ccn1 [Compound A-34, N-{2-[4-(4-chloro-2-fluorophenyl)piperazin-1-yl]phenyl}-2-methoxypyridine-4-sulfonamide]
AC50 (Homo sapiens, HeLa, 2 h): ≤ 2 µM

CC(C)(C)C(=O)N1CCN(c2ccccc2NS(=O)(=O)c2ccc(C(C)(C)C#N)cc2)CC1 [Compound A-535, 4-(1-cyano-1-methylethyl)-N-{2-[4-(2,2-dimethylpropanoyl)piperazin-1-yl]phenyl}benzene-1-sulfonamide]
AC50 (Homo sapiens, HeLa, 2 h): 2.01 to 8 µM

CC(c1cccc(F)c1N1CCCCC1)S(=O)(=O)c1ccc2c(c1)CCS2(=O)=O (centres unmarked) [Compound A-920, 5-{1-[3-fluoro-2-(piperidin-1-yl)phenyl]ethanesulfonyl}-2,3-dihydro-1λ^6-benzothiophene-1,1-dione]
AC50 (Homo sapiens, HeLa, 2 h): ≥ 10 µM

COCC1(C)CCN(c2ccc(F)cc2NS(=O)(=O)c2ccc(S(=O)(=O)N(C)C)cc2)CC1 [Compound A-695, N4-{5-fluoro-2-[4-(methoxymethyl)-4-methylpiperidin-1-yl]phenyl}-N1,N1-dimethylbenzene-1,4-disulfonamide]
AC50 (Homo sapiens, HeLa, 2 h): ≤ 2 µM

CN(C)S(=O)(=O)c1ccc(S(=O)(=O)N(C)c2cccc(Cl)c2N2CCOCC2)cc1 [Compound A-286, N1-[3-chloro-2-(morpholin-4-yl)phenyl]-N1,N4,N4-trimethylbenzene-1,4-disulfonamide]
AC50 (Homo sapiens, HeLa, 2 h): ≥ 10 µM

CC(c1cccc(F)c1N1CCC(CN2C3CCC2COC3)CC1)S(=O)(=O)c1ccc2c(c1)CC(C)(C)O2 (centres unmarked) [Compound A-886, 8-{[1-(2-{1-[(2,2-dimethyl-2,3-dihydro-1-benzofuran-5-yl)sulfonyl]ethyl}-6-fluorophenyl)piperidin-4-yl]methyl}-3-oxa-8-azabicyclo[3.2.1]octane]
AC50 (Homo sapiens, HeLa, 2 h): ≤ 2 µM

CC(c1cccc(F)c1N1CCC(CN2C[C@@H](C)O[C@@H](C)C2)CC1)S(=O)(=O)c1ccc2c(c1)CCC2 (single isomer, unassigned) [Compound A-828]
AC50 (Homo sapiens, HeLa, 2 h): ≤ 2 µM

COc1ccc(S(=O)(=O)Nc2cnccc2N2CCC(c3ncc(F)cc3F)CC2)cc1 [Compound A-193, N-{4-[4-(3,5-difluoropyridin-2-yl)piperidin-1-yl]pyridin-3-yl}-4-methoxybenzene-1-sulfonamide]
AC50 (Homo sapiens, HeLa, 2 h): ≥ 10 µM

CN(C)S(=O)(=O)c1ccc(S(=O)(=O)Nc2ccccc2N2CCCC23CCOC3)cc1 (centres unmarked) [Compound A-508, N1,N1-dimethyl-N4-(2-{7-oxa-1-azaspiro[4.4]nonan-1-yl}phenyl)benzene-1,4-disulfonamide]
AC50 (Homo sapiens, HeLa, 2 h): 2.01 to 8 µM

CN(C)S(=O)(=O)c1ccc(S(=O)(=O)Nc2ccccc2N2CCN(C3CCCCC3(F)F)CC2)cc1 (centres unmarked) [Compound A-626, N4-{2-[4-(2,2-difluorocyclohexyl)piperazin-1-yl]phenyl}-N1,N1-dimethylbenzene-1,4-disulfonamide]
AC50 (Homo sapiens, HeLa, 2 h): ≤ 2 µM

Cc1ccc(S(=O)(=O)c2ccccc2N2CCC(c3ccc(Cl)cc3F)CC2)cc1 [Compound A-133]
AC50 (Homo sapiens, HeLa, 2 h): ≥ 10 µM

CN(C)S(=O)(=O)c1ccc(S(=O)(=O)Nc2cccc(F)c2N2CCC(CN3CCC(F)(F)C3)CC2)cc1 [Compound A-774, N4-(2-{4-[(3,3-difluoropyrrolidin-1-yl)methyl]piperidin-1-yl}-3-fluorophenyl)-N1,N1-dimethylbenzene-1,4-disulfonamide]
AC50 (Homo sapiens, HeLa, 2 h): ≤ 2 µM

C[C@@H]1CN(CC2CCN(c3c(NS(=O)(=O)c4ccc(S(=O)(=O)N(C)C)cc4)cccc3C(F)(F)F)CC2)C[C@H](C)O1 [Compound A-788, N4-[2-(4-{[(2R,6S)-2,6-dimethylmorpholin-4-yl]methyl}piperidin-1-yl)-3-(trifluoromethyl)phenyl]-N1,N1-dimethylbenzene-1,4-disulfonamide]
AC50 (Homo sapiens, HeLa, 2 h): ≤ 2 µM

COCC1(C)CCN(c2ccccc2NS(=O)(=O)Cc2ccc(C)cc2)CC1 [Compound A-578, N-{2-[4-(methoxymethyl)-4-methylpiperidin-1-yl]phenyl}-1-(4-methylphenyl)methanesulfonamide]
AC50 (Homo sapiens, HeLa, 2 h): 2.01 to 8 µM

CN(C)S(=N)(=O)c1ccc(S(=O)(=O)Nc2ccccc2N2CCC(O)(c3ccc(Cl)cc3F)CC2)cc1 (centres unmarked) [Compound A-143, 4-({2-[4-(4-chloro-2-fluorophenyl)-4-hydroxypiperidin-1-yl]phenyl}sulfamoyl)-N,N-dimethylbenzene-1-sulfonoimidamide]
AC50 (Homo sapiens, HeLa, 2 h): ≤ 2 µM

CC(c1cccc(F)c1N1[C@@H]2CCC[C@H]1CC2)S(=O)(=O)c1ccc(S(=N)(=O)N(C)C)cc1 (single isomer, unassigned) [Compound A-989, 4-((1-(2-(8-azabicyclo[3.2.1]octan-8-yl)-3-fluorophenyl)ethyl)sulfonyl)-N,N-dimethylbenzenesulfonimidamide]
AC50: 8.01 to 9.99 µM

CC(C)S(=N)(=O)c1ccc(S(=O)(=O)[C@H](C)c2cccc(F)c2N2CCCCC2)cc1 (stereo partly drawn) [Compound A-922, (4-(((R)-1-(3-fluoro-2-(piperidin-1-yl)phenyl)ethyl)sulfonyl)phenyl)(imino)(isopropyl)-λ^6-sulfanone]
AC50 (Homo sapiens, HeLa, 2 h): ≥ 10 µM

CC(C1CCN(c2c(F)cccc2NS(=O)(=O)c2ccc(S(=N)(=O)N(C)C)cc2)CC1)N1C[C@@H](C)O[C@@H](C)C1 (single isomer, unassigned) [Compound A-872]
AC50: ≤ 2 µM

CCOCCC1CCN(c2ccccc2NS(=O)(=O)c2ccc3c(c2)CC(C)(C)O3)CC1 [Compound A-631, N-{2-[4-(2-ethoxyethyl)piperidin-1-yl]phenyl}-2,2-dimethyl-2,3-dihydro-1-benzofuran-5-sulfonamide]
AC50 (Homo sapiens, HeLa, 2 h): ≤ 2 µM

O=S(=O)(Nc1cccc(F)c1N1CCC(CN2C3CCC2COC3)CC1)c1ccc(C(F)(F)C2CC2)cc1 [Compound A-919, 4-(cyclopropyldifluoromethyl)-N-{3-fluoro-2-[4-({3-oxa-8-azabicyclo[3.2.1]octan-8-yl}methyl)piperidin-1-yl]phenyl}benzene-1-sulfonamide]
AC50 (Homo sapiens, HeLa, 2 h): ≤ 2 µM
